Results published in article PMC7865754, “Design and Synthesis of π-Extended Resveratrol Analogues and In Vitro Antioxidant and Anti-Inflammatory Activity Evaluation” (Molecules, 2021).
Several values for one entry are separate records, joined by “and”; a condition that tells them apart may be missing. Equal entries are not always repeated. Blank lines part the entries; values can stand above or below the compound they belong to.

Tests used:
[1] = In vitro ABTS radical scavenging assay; settings: mean ± SEM, n = 3; 30 min incubation, absorbance at 734 nm
Protocol: ABTS (2,2′-azinobis (3-ethylbenzothiazoline-6-sulfonic acid) diammonium salt) assay was used for the antioxidant estimation. Though many methods are available, this appears to be the most popular because of its operational simplicity, short experimental time, and the employment of the inexpensive spectrophotometer.
Antioxidant activity was tested in the dark room by ABTS assay. UV-1800 (Shimadzu Corporation, Kyoto, Japan) was used to measure UV absorption. Hellma’s 104.600-QC Quartz cell was used as a UV cell. IC50 values were obtained using OriginPro 8.0 software (OriginLab Corporation, Northampton, MA, USA).
Antioxidant assay using ABTS
The radical cation was prepared by mixing an equal amount of 7mM ABTS (2,2’-azino-bis(3-ethylbenzothiazoline-6-sulphonic acid)) stock solution with 2.45 mM potassium persulfate stock solution. This mixture was stored at 0 °C for 12 hours under darkness. The above ABTS […]
Then these solutions were diluted with methanol to 500 µM, 250 µM, 125 µM, 62.5 µM, […]
tubes, 0.9 mL of the ABTS solution and 0.1 mL of the compound solution were mixed under darkness. After 30 min of incubation, the UV absorption at 734 nm was measured. Control was used the mixture of 0.9 mL ABTS and 0.1 mL methanol. […]
(§1) Statistical analysis. Statistical significance was analyzed using the GraphPad Prism 5 software (GraphPad Software, San Diego, CA, USA). The comparison of two groups was performed by the unpaired t test. Values of *P less than 0.05, **P less than 0.01 and ***P less than 0.001 were considered statistically significant.

[2] = tested on: RAW 264.7 cells; assay: Cell viability (MTT) assay; type: cell-based; settings: for Cell Viability LD50: 24 h
Excerpt: In the pathogenesis of inflammatory-related disorders, NO is recognized as one of the important mediators. […] Herein, to understand the anti-inflammatory properties of the resveratrol analogues, we studied their inhibitory effects against NO production in LPS-treated RAW 264.7 cells. Although it is not possible to measure NO quantitatively in a biological environment due to its rapid oxidation to NO2 (nitrite), short physiological half-life and presence of other free radicals, NO secretion activity in cells is indirectly determined by Griess assay counting its stable product NO2 levels. The inhibitory effects of 1–7 on NO production were collected in Table 2. […] Cell viability was not affected up to 50 μM except for 2. We also applied in vitro efficacy index (iEI) paradigm, the ratio of toxicity (LD50)/anti-inflammatory potency (ED50), to confirm that the anti-inflammatory activity is in the viable cells only. […] On the whole, compounds 5 and 7 have much-improved iEI values compared to any other compounds. […]
NO assay and cell viability test
Murine macrophage, Raw 264.7 cells were grown in Dulbecco’s modified Eagle’s medium (Gibco, Carlsbad , CA, USA), supplemented with 2 mM glutamine, antibiotics (100 U/mL of penicillin A and […] of streptomycin) and 10% FBS (Gibco). Cells were cultured in 96-well plates (5×10^4 cells), treated with serial dilutions of compound (3.125-100 µM) and stimulated with LPS (1 µg/mL) for 24 h at 37°C. After incubation, the supernatant was collected and the amount of nitrite was quantified using the Griess Reagent System ( Promega, Fitchburg, WI, USA ). For the correction of NO production, cell viability was measured using the CellTiter 96® Aqueous one solution cell proliferation assay kit (Promega). Cells were incubated with varying amounts of compound for 24 h, then MTS (tetrazolium salt) reagent was added to the plates. After 1h, the absorbance at 490 nm was read using a microplate reader (Thermo Scientific, Waltham, MA, USA).
as §1

[3] = tested on: IL-1β gene expression in LPS-stimulated RAW 264.7 cells; assay: Pro-inflammatory cytokine gene expression by endpoint RT-PCR, IL-1β; type: cell-based, Murine; settings: 12.5~50 μM compound, 1 μg/mL LPS, 24 h
Protocol: (§2) We have further investigated whether resveratrol and its analogues can reduce the inflammatory activity of macrophages. For this purpose, we examined the downregulation of pro-inflammatory cytokine gene expression of LPS-stimulated RAW 264.7 cells by potent inhibitors of NO production (1, 2, 5, and 7) (Figure 2). […] Treatment with 50 μM of analogue 2 was highly toxic to the cells.
(§3) Figure 2 Inhibitory effects of 1–7 on pro-inflammatory cytokine production of activated macrophage cells. RAW 264.7 cells were treated with 1 μg/mL LPS for 24 h in the presence of the indicated amounts (12.5~50 μM) of compounds. Gene expression levels were analyzed by endpoint reverse transcriptase-polymerase chain reaction and 1.5% agarose gel electrophoresis. GAPDH was used as a control.
(§4) Reverse transcriptase-polymerase chain reaction (RT-PCR)
(§5) Total RNA was isolated from Raw 264.7 cells using TRIzol reagent (Invitrogen, Waltham,
(§6) MA, USA). Relative levels of pro-inflammatory cytokine gene expression were tested by
(§7) 1.5% agarose gel electrophoresis after endpoint RT-PCR using GoScript™ Reverse
(§8) Transcriptase (Promega). The sequences of the sense and anti-sense primers used for
(§9) amplification are as follows. IL-1β, 5’-[…]-3’, 5’-
(§10) TNF-α, 5’-[…]-3’, 5’-GGCACCA
(§11) -3’. As a control, glyceraldehyde-3-phosphate dehydrogenase
(§12) (GAPDH) gene was also amplified using 5’-[…]-3’, 5’-
(§13) (1 picture or pasted object on this page, not shown here)

[4] = tested on: IL-6 gene expression in LPS-stimulated RAW 264.7 cells; assay: Pro-inflammatory cytokine gene expression by endpoint RT-PCR, IL-6; type: cell-based, Murine; settings: 12.5~50 μM compound, 1 μg/mL LPS, 24 h
Protocol: as §2, §3, §4, §5, §6, §7, §8, §9, §10, §11, §12, §13

[5] = tested on: TNF-α gene expression in LPS-stimulated RAW 264.7 cells; assay: Pro-inflammatory cytokine gene expression by endpoint RT-PCR, TNF-α; type: cell-based, Murine; settings: 12.5~50 μM compound, 1 μg/mL LPS, 24 h
Protocol: as §2, §3, §4, §5, §6, §7, §8, §9, §10, §11, §12, §13

[6] = tested on: NO production in LPS-treated RAW 264.7 cells; assay: Inhibition of NO production (Griess assay, nitrite) in LPS-treated RAW 264.7 cells; type: cell-based, Murine; settings: LPS 1 μg/mL, 24 h, NO2 released into culture media, mean ± SEM, n = 3
Excerpt: In the pathogenesis of inflammatory-related disorders, NO is recognized as one of the important mediators. […] Herein, to understand the anti-inflammatory properties of the resveratrol analogues, we studied their inhibitory effects against NO production in LPS-treated RAW 264.7 cells. Although it is not possible to measure NO quantitatively in a biological environment due to its rapid oxidation to NO2 (nitrite), short physiological half-life and presence of other free radicals, NO secretion activity in cells is indirectly determined by Griess assay counting its stable product NO2 levels. The inhibitory effects of 1–7 on NO production were collected in Table 2. […] Cell viability was not affected up to 50 μM except for 2. […]
Anti-inflammatory activity was measured as the effect of compounds on inhibiting NO production versus cell viability. […]
Murine macrophage, Raw 264.7 cells were grown in Dulbecco’s modified Eagle’s medium (Gibco, Carlsbad , CA, USA), supplemented with 2 mM glutamine, antibiotics (100 U/mL of penicillin A and […] of streptomycin) and 10% FBS (Gibco). […] After incubation, the supernatant was collected and the amount of nitrite was quantified using the Griess Reagent System ( Promega, Fitchburg, WI, USA ). For the correction of NO production, cell viability was measured using the CellTiter 96® Aqueous one solution cell proliferation assay kit (Promega). […]

[7] = RAW 264.7 cells, mean ± SEM, n = 3

Structure (SMILES): Oc1cc(O)cc(/C=C/c2ccc3cc(O)ccc3n2)c1 [Compound 4]
IC50 [1]: 3.61 ± 0.253 µM
Cell Viability LD50 [2, 7]: 123.47 ± 6.388 µM

Structure (SMILES): Oc1cc(O)cc(/C=C/c2ccc3cc(O)ccc3c2)c1 [Compound 2]
IC50 [1]: 3.14 ± 0.445 µM
Toxicity to the cells ([2]; 50 μM, LPS-stimulated RAW 264.7 cells, seen in the RT-PCR experiment (RNA degraded, no PCR amplification)): highly toxic
Cell Viability LD50 [2, 7]: 28.82 ± 0.767 µM
Level of IL-1β gene expression [3]: significantly reduced
Level of IL-6 gene expression [4]: significantly reduced
Level of TNF-α gene expression [5]: did not change

Structure (SMILES): Oc1cc(O)cc(/C=C/c2ncc3cc(O)ccc3n2)c1 [Compound 7]
IC50 [1]: 3.54 ± 0.714 µM
NO/MTT Assay ED50 [6]: 21.67 µM and 21.67 ± 1.101 µM
Cell Viability LD50 [2, 7]: 92.58 ± 8.745 µM
Level of IL-1β gene expression [3]: significantly reduced
Level of IL-6 gene expression [4]: significantly reduced
Level of TNF-α gene expression [5]: did not change

IC50 [1]: 19.8 ± 0.934 µM
Structure (SMILES): O=C1O[C@H]([C@@H](O)CO)C(O)=C1O [Ascorbic acid, reference compound]

Structure (SMILES): Oc1cc(O)cc(/C=C/c2cnc3cc(O)ccc3c2)c1 [Compound 3]
IC50 [1]: 3.57 ± 0.496 µM
Cell Viability LD50 [2, 7]: 167.12 ± 13.652 µM

Structure (SMILES): Oc1cc(O)cc(/C=C/c2cc3ccc(O)cc3cn2)c1 [Compound 5]
IC50 [1]: 2.81 ± 0.034 µM
NO/MTT Assay ED50 [6]: 13.08 µM and 13.08 ± 0.690 µM
Cell Viability LD50 [2, 7]: 63.30 ± 1.139 µM
Level of IL-1β gene expression [3]: significantly reduced
Level of IL-6 gene expression [4]: significantly reduced
Level of TNF-α gene expression [5]: did not change

Structure (SMILES): Oc1ccc(/C=C/c2cc(O)cc(O)c2)cc1 [Compound 1, 3,5,4′-trihydroxy-trans-stilbene, reference compound]
Cell Viability LD50 ([2]; mouse): 81.08 ± 9.258 µM
Level of IL-1β gene expression [3]: significantly reduced
Level of IL-6 gene expression [4]: significantly reduced
Level of TNF-α gene expression [5]: did not change

Structure (SMILES): Oc1cc(O)cc(/C=C/c2cnc3cc(O)ccc3n2)c1 [Compound 6]
IC50 [1]: 3.1 ± 0.953 µM
Cell Viability LD50 [2, 7]: 120.46 ± 4.237 µM
